The text below walks through data of US6821774B1, “Compositions and methods for increasing cholesterol efflux and raising HDL using ATP binding cassette transporter ABC1” (CV Therapeutics, Inc., priority 1999, dated 2004).

In data set [1] the test system is RAW 264.7 cells. Kind of data set: Apo A-I-mediated cholesterol efflux assay in cholesterol-loaded RAW 264.7 macrophage cells. In kind it is cell-based, mouse. As to the method: To determine whether ligands for nuclear receptors affect the process of apolipoprotein-mediated cholesterol efflux, various ligands were tested using the apo A-I-mediated cholesterol efflux assay described in Example 12. The nuclear receptor superfamily includes several members, such as the liver receptor LXR, the retinoid receptor RXR, and the peroxisome proliferator-activated receptor PPAR, which have been implicated in lipid metabolism (Russell. D. W., Cell, 97:539-542 (1999); Spiegelman, B. W., Cell, 93:153-155 (1998); Janowski et al., Nature, 383:728-731 (1996)). […] Using the above-described assay, 9 cis-retinoic acid (RXR ligand), oxysterol (LXR ligand), and fenfibrate (PPAR ligand) was tested to determine the effect on cholesterol efflux.
To determine whether eicosanoids affect the process of apolipoprotein-mediated cholesterol efflux, PGE1 and PG12 were tested using the apo A-I-mediated cholesterol efflux assay described in Example 12.

Data set [2] has as its system ABC1 mRNA. Kind of data set: ABC1 mRNA expression by RT-PCR in normal fibroblasts. In kind it is cell-based, human. As to the method:
(§1) To determine whether ABC1 plays a rate-limiting role in cellular sterol efflux, the synthesis of ABC1 was measured under various cellular conditions related to cholesterol efflux processes. Specifically, normal fibroblasts and TD fibroblasts were individually exposed to conditions of excess cAMP, cholesterol, or Apo A-I. Cell cultures of normal skin fibroblasts and TD1 and TD2 fibroblasts were prepared as described in Example 1. The level of ABC1 mRNA was measured by RT-PCR. Cell cultures: Immortalized cell cultures of normal skin fibroblasts and TD1 and TD2 fibroblasts were prepared as described in Example 1. Cells were grown to subconfluence in DMEM/10% FBS before replacement with DMEM/BSA and the indicated additive for 24 or 48 hours. RNA was prepared as described in Example 2. RT-PCR: Quantitative PCR was carried out using the GeneAmp 5700 Sequence Detection System (Perkin-Elmer Applied Biosystems, Foster City, Calif.). Briefly, 500 ng of DNase-treated mRNA was reverse transcribed using random hexamer primers at 2.5 μM. Approximately 5% of this reaction was amplified by PCR using the SYBR green core kit (PE Applied Biosystems, Foster City, Calif.; Cat. #4304886) and human ABC1 primers […] […] The mRNA in each sample was quantitated by detecting the increase in fluorescence caused by SYBR green binding to the double-stranded amplification product generated during each PCR cycle. […]

Data set [3] has as its system ABC1 mRNA. Put plainly: ABC1 mRNA expression by RT-PCR in Tangier disease (TD1, TD2) fibroblasts. In kind it is cell-based, human. The conditions noted are these: 10 μg/ml apo A-I. As to the method: as §1
For another data set, the system named is TD fibroblasts. Kind of data set: Cholesterol efflux from cholesterol-laden Tangier disease fibroblasts. The following applies: albumin plus apo A-I 10 μg/ml. In kind it is cell-based, human. As to the method:
(§2) Cell Cultures: Human fibroblasts were obtained from skin explants from two normal subjects (NL1) and three unrelated patients with Tangier disease ([…]). TD1 cells were obtained from a person with extremely low plasma HDL cholesterol and apo A-I levels and clinical symptoms typical of Tangier disease. […] TD3 cells were obtained from a person with Tangier disease who presented with orange tonsil remnants, asymmetrical motor neuropathy, plasma HDL cholesterol of 5 mg/dL, and LDL cholesterol of 16 mg/dL (Lawn et at., J. Clin. Invest., 104, R25-R31 (1999)). The normal cells and TD subject cells were immortalized as described in Oram et al., J. Lipid Res., 40: 1769-1781 (1999). Briefly, the cells were transfected with amphotropic retroviruses containing vectors with inserts of human papillomavirus 16 oncogenes E6 and E7 and a neomycin resistance selectable marker. Control cells were infected with vector alone (mock-infected). Pooled cell populations were selected in the presence of G418 for two passages, after which G418 was excluded from the medium. Fibroblasts were used between the fifth and sixteenth passage (primary) or sixth and fourteenth passage (immortalized). The immortalized normal and TD cells were seeded into 16-mm wells or 35-mm dishes and grown to confluence in Dulbecco's modified Eagle's medium (DMEM) plus 10% fetal bovine serum (FBS) before experimental use. […]

Data set [4] relates to normal fibroblasts. Kind of data set: Cholesterol efflux from cholesterol-laden normal fibroblasts. In kind it is cell-based, human. The conditions noted are these: albumin plus apo A-I 10 μg/ml; up to 48 hours. As to the method: as §2
The next data set relates to ABC1 protein. Kind of data set: Cell-surface labeling and immunoprecipitation of ABC1 protein in normal and TD1 fibroblasts. In kind it is cell-based, human. The conditions noted are these: serum deprivation and cholesterol-loading (30 μg/ml, 48 hours), normal and TD1 cells.
For data set [5], the system named is RAW 264.7 cells. Put plainly: Apo A-I-mediated cholesterol efflux assay in cholesterol-loaded RAW 264.7 macrophage cells. In kind it is cell-based, mouse. The following applies: apo A-I (20 μg/ml) and rolipram 50 μM.
Another data set deals with ABC1 (Mus musculus, UniProt P41233). The following applies: Becq et al. 1997; Hamon et al. 1997; cited from earlier work.
Sequence of ABC1 (P41233 whole entry): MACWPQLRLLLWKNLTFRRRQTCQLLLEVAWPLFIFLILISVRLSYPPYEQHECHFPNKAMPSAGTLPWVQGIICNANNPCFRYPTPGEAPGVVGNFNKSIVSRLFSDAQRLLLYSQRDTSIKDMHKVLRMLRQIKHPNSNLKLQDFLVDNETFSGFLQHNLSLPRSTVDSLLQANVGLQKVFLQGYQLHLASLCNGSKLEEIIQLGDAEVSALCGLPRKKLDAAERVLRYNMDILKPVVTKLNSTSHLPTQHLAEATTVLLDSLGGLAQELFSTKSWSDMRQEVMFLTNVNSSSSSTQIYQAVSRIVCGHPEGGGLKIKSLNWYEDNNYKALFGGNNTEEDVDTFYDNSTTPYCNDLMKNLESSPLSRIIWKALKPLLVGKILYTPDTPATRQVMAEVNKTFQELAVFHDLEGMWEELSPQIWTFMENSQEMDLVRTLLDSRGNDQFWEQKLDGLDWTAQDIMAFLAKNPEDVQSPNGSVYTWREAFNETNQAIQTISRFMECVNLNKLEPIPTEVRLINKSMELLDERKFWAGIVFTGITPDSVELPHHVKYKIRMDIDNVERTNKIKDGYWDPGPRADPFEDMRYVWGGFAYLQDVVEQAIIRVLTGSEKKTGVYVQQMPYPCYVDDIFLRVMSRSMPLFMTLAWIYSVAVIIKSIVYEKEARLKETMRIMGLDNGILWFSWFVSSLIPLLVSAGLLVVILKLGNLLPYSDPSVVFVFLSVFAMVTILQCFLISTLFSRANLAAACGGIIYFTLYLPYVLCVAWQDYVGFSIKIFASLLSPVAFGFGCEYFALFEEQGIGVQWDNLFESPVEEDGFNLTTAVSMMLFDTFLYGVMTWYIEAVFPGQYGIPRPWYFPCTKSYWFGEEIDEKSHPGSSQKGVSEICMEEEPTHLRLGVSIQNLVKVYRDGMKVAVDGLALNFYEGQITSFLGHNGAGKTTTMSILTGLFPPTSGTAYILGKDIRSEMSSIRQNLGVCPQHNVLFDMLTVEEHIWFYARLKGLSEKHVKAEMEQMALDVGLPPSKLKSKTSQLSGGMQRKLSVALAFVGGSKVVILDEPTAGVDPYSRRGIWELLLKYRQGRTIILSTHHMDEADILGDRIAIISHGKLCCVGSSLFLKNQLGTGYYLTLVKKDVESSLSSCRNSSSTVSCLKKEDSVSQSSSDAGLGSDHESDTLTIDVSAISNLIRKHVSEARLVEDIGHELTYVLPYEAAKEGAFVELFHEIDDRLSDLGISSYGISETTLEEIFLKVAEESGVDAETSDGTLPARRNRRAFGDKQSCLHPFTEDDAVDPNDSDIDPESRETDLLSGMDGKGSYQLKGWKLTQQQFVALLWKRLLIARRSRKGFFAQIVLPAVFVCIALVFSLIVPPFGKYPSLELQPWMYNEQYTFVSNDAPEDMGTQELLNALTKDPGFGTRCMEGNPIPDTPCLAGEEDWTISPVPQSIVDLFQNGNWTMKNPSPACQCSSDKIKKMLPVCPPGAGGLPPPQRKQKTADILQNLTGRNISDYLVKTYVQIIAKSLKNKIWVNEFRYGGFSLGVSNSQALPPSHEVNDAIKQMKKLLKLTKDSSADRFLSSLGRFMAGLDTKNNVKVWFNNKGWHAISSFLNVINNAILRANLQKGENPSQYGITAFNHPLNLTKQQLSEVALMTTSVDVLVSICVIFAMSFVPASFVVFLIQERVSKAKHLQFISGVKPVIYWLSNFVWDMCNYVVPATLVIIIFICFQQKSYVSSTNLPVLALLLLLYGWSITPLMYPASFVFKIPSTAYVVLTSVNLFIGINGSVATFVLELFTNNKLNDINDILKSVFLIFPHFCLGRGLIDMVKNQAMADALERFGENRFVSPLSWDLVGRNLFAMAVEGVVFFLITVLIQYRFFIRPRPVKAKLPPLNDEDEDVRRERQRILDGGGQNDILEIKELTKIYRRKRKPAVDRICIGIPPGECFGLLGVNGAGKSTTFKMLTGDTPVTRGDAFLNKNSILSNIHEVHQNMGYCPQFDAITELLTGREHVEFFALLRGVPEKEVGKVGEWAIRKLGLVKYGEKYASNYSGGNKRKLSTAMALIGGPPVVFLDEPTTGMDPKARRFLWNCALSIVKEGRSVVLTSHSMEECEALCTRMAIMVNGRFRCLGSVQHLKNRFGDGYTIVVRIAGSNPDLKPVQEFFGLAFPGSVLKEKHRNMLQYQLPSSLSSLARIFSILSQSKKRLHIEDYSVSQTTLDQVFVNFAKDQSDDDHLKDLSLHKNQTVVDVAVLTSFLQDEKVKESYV
Data set [6] concerns normal fibroblasts. Kind of data set: Apo A-I-mediated cholesterol efflux from normal fibroblasts in the presence of ABC1 transport inhibitors. In kind it is cell-based, human. The following applies: 6 hours; 5 μg/ml apo A-I; 0, 0.2 mM or 0.4 mM inhibitor. Here is the method: To test whether inhibition of ABC1 could affect the process of apolipoprotein-mediated cholesterol efflux, two compounds reported to be ABC1 inhibitors were tested in assays which monitor apolipoprotein mediated cholesterol efflux. […] The apolipoprotein-mediated cholesterol efflux assays were performed as described in Example 1 with the noted changes. Cholesterol-loaded and [^3H]cholesterol-labeled normal fibroblasts (n=3) were incubated for 6 hours with or without 5 μg/ml apo A-1 and either 0, 0.2 mM, or 0.4 mM DIDS. In addition, cholesterol-loaded and [^3H]cholesterol-labeled normal fibroblasts (n=3) were incubated for 6 hours with or without 5 μg/ml apo A-I and either 0, 0.2 mM, or 0.4 mM BSP. […] The results are shown in FIG. 5 as the mean±SD (n=3) of efflux in the presence of apo A-I after subtraction of values for apo A-I-free medium. […] The results of these tests mimic the efflux defect in fibroblasts derived from patients with TD, described in Example 1.

Data set [7] relates to ABC1 mRNA. Put plainly: Apo A-I-mediated cholesterol efflux from normal skin fibroblasts loaded with antisense oligonucleotide. In kind it is cell-based, human. The conditions noted are these: 30 μM oligonucleotide; apo A-I-mediated efflux after 12 hours. Here is the method:
Normal skin fibroblasts were labeled with [^3H]cholesterol as described in Example 1. The cells were then loaded with oligonucleotide by scraping in the presence of either 30 μM control Morpholino oligonucleotide (5′-[…]-3′ corresponding to the antisense complement of a β-globin thalassemic mRNA; SEQ ID NO: 52) or 30 μM ABC1 antisense Morpholino oligonucleotide (5′-[…]-3′; SEQ ID NO: 53) and reseeding on new dishes. Control cells were mock-loaded after [^3H]cholesterol-labeling by scraping and reseeding in the absence of oligonucleotide. […] The results are shown in FIG. 6 as the mean±SEM of three separate experiments, normalized to the value for apo A-I-specific efflux in the absence of oligonucleotide in each experiment.

Protocol for ABC1 protein: Cell-surface labeling and immunoprecipitation was used to determine whether increased expression of ABC1 protein in the plasma membrane is correlated with an increase in cholesterol efflux (FIG. 10). The relative amount of ABC1 on the cell surface was determined by cross-linking surface proteins on intact cells with the membrane-impermeable agent sulfo-NHS-biotin, followed by the steps of membrane solubilization, immunoprecipitation with ABC1 antibody, SDS-PAGE, and detection with streptavidin.
Both normal and TD1 cells were cultured under control conditions and conditions known to increase apolipoprotein-mediated cholesterol efflux (Oram, et al., J. Lip. Res., 40: 1769-1781 (1999)). […] Cholesterol-loaded cells were grown to confluence in DMEM/10% FBS and then incubated in DMEM/BSA for 48 hours with 30 μg/ml cholesterol plus 18 hours with no additives (cholesterol). […]
Detection of ABC1 Protein: The eluted biotinylated proteins were subjected to SDS-PAGE (6% gel; 150V, 5 hours) and transferred to nitrocellulose membrane (200 mA, 18 hours). The nitrocellulose was probed with streptavidin-horse radish peroxidase (Amersham Pharmacia, Piscataway, N.J.; Cat. #RPN 1231) diluted 300-fold and detected by enhanced chemiluminescence labeling (ECL) according to vendor's protocol (Amersham Pharmacia, Piscataway, N.J.). […]

As for “apo A-I: apolipoprotein cholesterol acceptor (Biodesign International)”, in the data set with RAW 264.7 cells [1] (apo A-I only (20 μg/ml), control cells without apo A-I 3%), the “cholesterol efflux (percentage of total radiolabeled cholesterol appearing in the medium)” value came to 5%. The cholesterol efflux counts with RAW 264.7 cells [1] (control cells (apo A-I only)) stood at 1890 c.p.m. Besides, the “change in ABC1 mRNA expression” value in the data set on ABC1 mRNA [2] (cholesterol-loaded normal fibroblasts then 10 μg/ml apo A-I) is reported as “marked decrease”. Besides, the “change in ABC1 expression” value with ABC1 mRNA [3] (cholesterol-loaded TD1 cells) was “did not alter ABC1 expression”; in the data set with ABC1 mRNA [3] (cholesterol-loaded TD2 cells) it was “slightly increased ABC1 expression”. The “efflux of [3H]-cholesterol” value in the data set on TD fibroblasts was “little or no effect”; with normal fibroblasts [4], “promoted the efflux”.

As to `CC(C)CCC[C@@H](C)[C@H]1CC[C@H]2[C@@H]3CC=C4C[C@@H](O)CC[C@]4(C)[C@H]3CC[C@]12C` [cholesterol], the “increase in ABC1 mRNA” value in the data set on ABC1 mRNA [2] (30 μg/ml free cholesterol, 48 hours, serum-free medium, normal fibroblasts) was “approximately 17 fold”. In the data set with ABC1 protein, the “cell-surface expression of ABC1” value was “markedly increased”.

Take `COc1ccc(C2CNC(=O)C2)cc1OC1CCCC1` (stereo not shown) [rolipram]: in the data set on RAW 264.7 cells [5], the “cholesterol efflux (percentage of total radiolabeled cholesterol appearing in the medium)” value was determined as 17%.

Regarding `O=C1OC(c2ccc(O)c(S(=O)(=O)O)c2)(c2ccc(O)c(S(=O)(=O)O)c2)c2c(Br)c(Br)c(Br)c(Br)c21` [BSP, sulphobromophthaleine], the “anion transport activities of ABC1” value on ABC1 is “inhibit anion transport activities of ABC1 in a dose-dependent fashion”. Besides, the “apo A-I-mediated efflux of tritiated cholesterol” value in the data set with normal fibroblasts [6] is listed as “inhibited”.

Consider “ABC1 antisense Morpholino oligonucleotide: 5′-CATGTTGTTCATAGGGTGGGTAGCTC-3′; SEQ ID NO: 53 (all phosphorodiamidate morpholino (PMO))”, for which, in the data set on ABC1 mRNA [7], the “reduction in cholesterol efflux compared with control (β-globin) antisense oligonucleotide” value was 50%.
